SMILES strings stand for the structures.

In the assay the test system is Plasmodium berghei. The assay is described as follows: Antiplasmodial activity as survival against Plasmodium berghei ANKA infected mice (Mus musculus). In kind it is functional.

On to `NCCOP(=O)(O)OC[C@H]1O[C@H](O[C@@H]2[C@@H](OC[C@H]3O[C@H](O[C@H]4[C@H](O)[C@@H](N)[C@@H](O[C@@H]5[C@@H](O)[C@H](O)[C@@H](O)[C@H]6OP(=O)(O)O[C@H]65)O[C@@H]4CO)[C@@H](O)[C@@H](O)[C@@H]3O)O[C@H](CO)[C@@H](O)[C@@H]2O)[C@@H](O[C@H]2O[C@H](CO)[C@@H](O)[C@H](O)[C@@H]2O)[C@@H](O)[C@@H]1O`, for which the Survival is on record as 75%.
